ChEMBL document CHEMBL4138123, “Design, synthesis and biological evaluation of novel pyrazolochalcones as potential modulators of PI3K/Akt/mTOR pathway and inducers of apoptosis in breast cancer cells” (Eur J Med Chem, 2017)

Key:
Assay type in all cases: functional
[1] = tested on: Malme-3M; assay: Cytotoxicity against human MALME-3M cells assessed as cell growth at 0.01 uM after 48 hrs by sulforhodamine B assay relative to control; settings: read-out: Activity
[2] = tested on: CCRF-CEM; assay: Cytotoxicity against human CCRF-CEM cells assessed as growth inhibition after 48 hrs by sulforhodamine B assay
[3] = tested on: NCI/ADR-RES; assay: Cytotoxicity against human NCI/ADR-RES cells assessed as cell growth at 10 uM after 48 hrs by sulforhodamine B assay relative to control; settings: read-out: Activity
[4] = tested on: HT-29; assay: Cytotoxicity against human HT-29 cells assessed as cell growth at 10 uM after 48 hrs by sulforhodamine B assay relative to control; settings: HT-29, 48 h, read-out: Activity
[5] = tested on: NCI-H322M; assay: Cytotoxicity against human NCI-H322M cells assessed as cell growth at 0.01 uM after 48 hrs by sulforhodamine B assay relative to control; settings: read-out: Activity
[6] = tested on: KM12; assay: Cytotoxicity against human KM12 cells assessed as growth inhibition after 48 hrs by sulforhodamine B assay; settings: KM12, 48 h
[7] = tested on: HOP-62; assay: Cytotoxicity against human HOP62 cells assessed as cell growth at 1 uM after 48 hrs by sulforhodamine B assay relative to control; settings: HOP-62, 48 h, read-out: Activity
[8] = tested on: MDA-MB-435; assay: Cytotoxicity against human MDA-MB-435 cells assessed as cell growth at 0.1 uM after 48 hrs by sulforhodamine B assay relative to control; settings: MDA-MB-435, 48 h, read-out: Activity
[9] = tested on: BT-549; assay: Cytotoxicity against human BT549 cells assessed as cell growth at 0.01 uM after 48 hrs by sulforhodamine B assay relative to control; settings: BT-549, 48 h, read-out: Activity
[10] = tested on: NCI/ADR-RES; assay: Cytotoxicity against human NCI/ADR-RES cells assessed as growth inhibition after 48 hrs by sulforhodamine B assay
[11] = tested on: MDA-MB-468; assay: Cytotoxicity against human MDA-MB-468 cells assessed as growth inhibition after 48 hrs by sulforhodamine B assay; settings: MDA-MB-468, 48 h
[12] = tested on: ACHN; assay: Cytotoxicity against human ACHN cells assessed as cell growth at 1 uM after 48 hrs by sulforhodamine B assay relative to control; settings: read-out: Activity
[13] = tested on: PC-3; assay: Cytotoxicity against human PC3 cells assessed as cell growth at 10 uM after 48 hrs by sulforhodamine B assay relative to control; settings: PC-3, 48 h, read-out: Activity
[14] = tested on: HT-29; assay: Cytotoxicity against human HT-29 cells assessed as cell growth at 1 uM after 48 hrs by sulforhodamine B assay relative to control; settings: HT-29, 48 h, read-out: Activity
[15] = tested on: NCI-H226; assay: Cytotoxicity against human NCI-H226 cells assessed as cell growth at 1 uM after 48 hrs by sulforhodamine B assay relative to control; settings: NCI-H226, 48 h, read-out: Activity
[16] = tested on: UO-31; assay: Cytotoxicity against human UO31 cells assessed as cell growth at 0.01 uM after 48 hrs by sulforhodamine B assay relative to control; settings: UO-31, 48 h, read-out: Activity
[17] = tested on: U-251; assay: Cytotoxicity against human U251 cells assessed as cell growth at 1 uM after 48 hrs by sulforhodamine B assay relative to control; settings: U-251, 48 h, read-out: Activity
[18] = tested on: UO-31; assay: Cytotoxicity against human UO31 cells assessed as cell growth at 0.1 uM after 48 hrs by sulforhodamine B assay relative to control; settings: UO-31, 48 h, read-out: Activity
[19] = tested on: NCI-H23; assay: Cytotoxicity against human NCI-H23 cells assessed as growth inhibition after 48 hrs by sulforhodamine B assay; settings: NCI-H23, 48 h; for CC50: read-out: LC50 (the source's name)
[20] = tested on: UO-31; assay: Cytotoxicity against human UO31 cells assessed as cell growth at 100 uM after 48 hrs by sulforhodamine B assay relative to control; settings: UO-31, 48 h, read-out: Activity
[21] = tested on: MCF7; assay: Cytotoxicity against human MCF7 cells assessed as cell growth at 100 uM after 48 hrs by sulforhodamine B assay relative to control; settings: MCF7, 48 h, read-out: Activity
[22] = tested on: M14; assay: Cytotoxicity against human M14 cells assessed as cell growth at 10 uM after 48 hrs by sulforhodamine B assay relative to control; settings: M14, 48 h, read-out: Activity
[23] = tested on: Hs-578T; assay: Cytotoxicity against human Hs 578T cells assessed as cell growth at 1 uM after 48 hrs by sulforhodamine B assay relative to control; settings: read-out: Activity
[24] = tested on: OVCAR-4; assay: Cytotoxicity against human OVCAR4 cells assessed as cell growth at 1 uM after 48 hrs by sulforhodamine B assay relative to control; settings: OVCAR-4, 48 h, read-out: Activity
[25] = tested on: COLO 205; assay: Cytotoxicity against human COLO205 cells assessed as growth inhibition after 48 hrs by sulforhodamine B assay; settings: COLO 205, 48 h
[26] = tested on: HT-29; assay: Cytotoxicity against human HT-29 cells assessed as cell growth at 100 uM after 48 hrs by sulforhodamine B assay relative to control; settings: HT-29, 48 h, read-out: Activity
[27] = tested on: HOP-62; assay: Cytotoxicity against human HOP62 cells assessed as cell growth at 0.1 uM after 48 hrs by sulforhodamine B assay relative to control; settings: HOP-62, 48 h, read-out: Activity
[28] = tested on: IGROV-1; assay: Cytotoxicity against human IGROV1 cells assessed as growth inhibition after 48 hrs by sulforhodamine B assay; settings: IGROV-1, 48 h
[29] = tested on: HL-60(TB); assay: Cytotoxicity against human HL-60(TB) cells assessed as growth inhibition after 48 hrs by sulforhodamine B assay; settings: HL-60, 48 h
[30] = tested on: COLO 205; assay: Cytotoxicity against human COLO205 cells assessed as cell growth at 0.01 uM after 48 hrs by sulforhodamine B assay relative to control; settings: COLO 205, 48 h, read-out: Activity
[31] = tested on: NCI-H226; assay: Cytotoxicity against human NCI-H226 cells assessed as cell growth at 0.1 uM after 48 hrs by sulforhodamine B assay relative to control; settings: NCI-H226, 48 h, read-out: Activity
[32] = tested on: SR; assay: Cytotoxicity against human SR cells assessed as cell growth at 0.01 uM after 48 hrs by sulforhodamine B assay relative to control; settings: read-out: Activity
[33] = tested on: IGROV-1; assay: Cytotoxicity against human IGROV1 cells assessed as cell growth at 0.1 uM after 48 hrs by sulforhodamine B assay relative to control; settings: IGROV-1, 48 h, read-out: Activity
[34] = tested on: MDA-MB-231; assay: Cytotoxicity against human MDA-MB-231 cells assessed as growth inhibition after 48 hrs by sulforhodamine B assay; settings: MDA-MB-231, 48 h
[35] = tested on: SK-MEL-5; assay: Cytotoxicity against human SK-MEL-5 cells assessed as cell growth at 0.01 uM after 48 hrs by sulforhodamine B assay relative to control; settings: SK-MEL-5, 48 h, read-out: Activity
[36] = tested on: A498; assay: Cytotoxicity against human A498 cells assessed as cell growth at 0.1 uM after 48 hrs by sulforhodamine B assay relative to control; settings: A498, 48 h, read-out: Activity

COc1cc(-c2cc(/C=C/C(=O)c3ccc(F)c(F)c3)[nH]n2)cc(OC)c1OC
growth at 0.01 µM [1]: 93%
LC50 (concentration killing 50% of cells) [2]: > 100 µM
TGI [2]: 47.2 µM
growth at 10 µM [3]: 11%
growth at 10 µM [4]: -24%
growth at 0.01 µM [5]: 94%
LC50 [6]: > 100 µM
TGI [6]: 11.4 µM
growth at 1 µM [7]: 94%
growth at 0.1 µM [8]: 90%
growth at 0.01 µM [9]: 101%
LC50 [10]: > 100 µM
TGI [10]: 50.5 µM
GI50 [11]: 2.22 µM
LC50 [11]: > 100 µM
TGI [11]: 9.47 µM
growth at 1 µM [12]: 100%
growth at 10 µM [13]: -23%
growth at 1 µM [14]: 103%
growth at 1 µM [15]: 95%
growth at 0.01 µM [16]: 90%
growth at 1 µM [17]: 87%
growth at 0.1 µM [18]: 86%
TGI [19]: 8.5 µM
CC50 [19]: > 100 µM
growth at 100 µM [20]: -16%
growth at 100 µM [21]: -20%
growth at 10 µM [22]: 3%
growth at 1 µM [23]: 86%
growth at 1 µM [24]: 67%
LC50 [25]: 6 µM
TGI [25]: 3.19 µM
growth at 100 µM [26]: -67%
growth at 0.1 µM [27]: 101%
LC50 [28]: > 100 µM
TGI [28]: 87 µM
LC50 [29]: > 100 µM
TGI [29]: 6.03 µM
growth at 0.01 µM [30]: 101%
growth at 0.1 µM [31]: 97%
growth at 0.01 µM [32]: 100%
growth at 0.1 µM [33]: 97%
LC50 [34]: > 100 µM
TGI [34]: 4.58 µM
growth at 0.01 µM [35]: 98%
growth at 0.1 µM [36]: 96%

COc1ccc(-c2cc(/C=C/C(=O)c3cc(OC)c(OC)c(OC)c3)[nH]n2)cc1OC
growth at 0.01 µM [1]: 98%
GI50 [2]: 0.34 µM
LC50 (concentration killing 50% of cells) [2]: > 100 µM
TGI [2]: 3.13 µM
growth at 10 µM [3]: 9%
growth at 10 µM [4]: -87%
growth at 0.01 µM [5]: 93%
GI50 [6]: 0.78 µM
LC50 [6]: 5.68 µM
TGI [6]: 2.27 µM
growth at 1 µM [7]: 71%
growth at 0.1 µM [8]: 91%
growth at 0.01 µM [9]: 96%
GI50 [10]: 2.69 µM
LC50 [10]: > 100 µM
TGI [10]: 37 µM
GI50 [11]: 1.33 µM
LC50 [11]: 8.03 µM
TGI [11]: 3.27 µM
growth at 1 µM [12]: 78%
growth at 10 µM [13]: 1%
growth at 1 µM [14]: 68%
growth at 1 µM [15]: 73%
growth at 0.01 µM [16]: 88%
growth at 1 µM [17]: 65%
growth at 0.1 µM [18]: 82%
GI50 [19]: 1.97 µM
TGI [19]: 4.91 µM
CC50 [19]: > 100 µM
growth at 100 µM [20]: -93%
growth at 100 µM [21]: -43%
growth at 10 µM [22]: -70%
growth at 1 µM [23]: 86%
growth at 1 µM [24]: 66%
GI50 [25]: 1.75 µM
LC50 [25]: 7.28 µM
TGI [25]: 3.57 µM
growth at 100 µM [26]: -66%
growth at 0.1 µM [27]: 80%
GI50 [28]: 2.72 µM
LC50 [28]: 46.7 µM
TGI [28]: 8.61 µM
GI50 [29]: 1.69 µM
LC50 [29]: > 100 µM
TGI [29]: 14.8 µM
growth at 0.01 µM [30]: 99%
growth at 0.1 µM [31]: 90%
growth at 0.01 µM [32]: 93%
growth at 0.1 µM [33]: 97%
GI50 [34]: 2.02 µM
LC50 [34]: 55.4 µM
TGI [34]: 13.5 µM
growth at 0.01 µM [35]: 101%
growth at 0.1 µM [36]: 89%

COc1ccc(-c2cc(/C=C/C(=O)c3ccc(OC)c(OC)c3)[nH]n2)cc1
growth at 0.01 µM [1]: 89%
GI50 [2]: 1.34 µM
LC50 (concentration killing 50% of cells) [2]: > 100 µM
TGI [2]: 4.14 µM
growth at 10 µM [3]: 15%
growth at 10 µM [4]: -66%
growth at 0.01 µM [5]: 94%
GI50 [6]: 1.38 µM
LC50 [6]: 7.01 µM
TGI [6]: 3.11 µM
growth at 1 µM [7]: 94%
growth at 0.1 µM [8]: 95%
growth at 0.01 µM [9]: 100%
GI50 [10]: 3.44 µM
LC50 [10]: > 100 µM
TGI [10]: 24.8 µM
GI50 [11]: 1.22 µM
LC50 [11]: 7.12 µM
TGI [11]: 2.94 µM
growth at 1 µM [12]: 82%
growth at 10 µM [13]: -61%
growth at 1 µM [14]: 77%
growth at 1 µM [15]: 76%
growth at 0.01 µM [16]: 86%
growth at 1 µM [17]: 57%
growth at 0.1 µM [18]: 87%
GI50 [19]: 2.47 µM
TGI [19]: 6.33 µM
CC50 [19]: 34.1 µM
growth at 100 µM [20]: -100%
growth at 100 µM [21]: -100%
growth at 10 µM [22]: -42%
growth at 1 µM [23]: 81%
growth at 1 µM [24]: 39%
GI50 [25]: 1.76 µM
LC50 [25]: 6.16 µM
TGI [25]: 3.3 µM
growth at 100 µM [26]: -81%
growth at 0.1 µM [27]: 97%
GI50 [28]: 1.57 µM
LC50 [28]: 8.49 µM
TGI [28]: 3.65 µM
GI50 [29]: 2.18 µM
LC50 [29]: > 100 µM
TGI [29]: 6.4 µM
growth at 0.01 µM [30]: 103%
growth at 0.1 µM [31]: 90%
growth at 0.01 µM [32]: 100%
growth at 0.1 µM [33]: 91%
GI50 [34]: 2 µM
LC50 [34]: 30 µM
TGI [34]: 6.63 µM
growth at 0.01 µM [35]: 90%
growth at 0.1 µM [36]: 79%
